Experimental data from patent US20230398130A1, “METHODS AND COMPOSITIONS FOR DIFFERENTIATING STEM CELLS” (Massachusetts Institute of Technology, priority 2020, published 2023).
Counter-ions that a name gives are not always drawn.

Test system: ISC-enriched organoids
Experiment: Primary screen, 384-well 2.5-D organoid differentiation (ENR+CD, 6 days, Target Selective Inhibitor Library, vs whole-plate median): ATP (CellTiter-Glo 3D, CTG)
Conditions: for Z.CTG: standard z score of FC; for Z.CTG (standard z score): primary screen

Structure (SMILES) | Z.CTG (Dose 0.08 uM) | Z.CTG (Dose 0.40 uM) | Z.CTG (Dose 2.00 uM) | Z.CTG (Dose 10.00 uM) | Z.CTG (standard z score) (Dose 0.08 uM) | Z.CTG (standard z score) (Dose 0.40 uM) | Z.CTG (standard z score) (Dose 2.00 uM) | Z.CTG (standard z score) (Dose 10.00 uM)
COc1ccc2cc([C@H](C)C(=O)O)ccc2c1 [Naproxen] | −0.233 | −0.162 | −1.405 | −3.063 |  |  |  | 
OC(CNCC(O)C1CCc2cc(F)ccc2O1)C1CCc2cc(F)ccc2O1 (centres unmarked) [Nebivolol] | 0.926 | 0.526 | 0.746 | 0.499 |  |  |  | 
COC(=O)C1=C(C#N)NC(C)=C(C(=O)OC(C)C)C1c1cccc([N+](=O)[O-])c1 (centres unmarked) [Nilvadipine] | 0.493 | 0.324 | 0.506 | 0.460 |  |  |  | 
Cc1c(Cc2ccc3ccccc3n2)c2cc(F)ccc2n1CC(=O)O [OC000459] | 0.184 | −0.155 | 0.210 | 0.211 |  |  |  | 
Cc1sc2c(c1C)C(c1ccc(Cl)cc1)=N[C@@H](CC(=O)Nc1ccc(O)cc1)c1nnc(C)n1-2 [OTX015] | −0.092 | −0.952 | −1.638 | −2.169 |  |  |  | 
NC(=O)N1c2ccccc2CC(=O)c2ccccc21 [Oxcarbazepine] | −0.051 | −0.247 | −0.197 | −0.359 |  |  |  | 
Cc1cc(C(C)(C)C)c(O)c(C)c1CC1=NCCN1 [Oxymetazoline HCl] | 0.340 | 0.281 | −0.016 | 0.282 |  |  |  | 
O=C(O)/C=C/c1ccc(Cn2ccnc2)cc1 [Ozagrel HCl] | 0.118 | 0.318 | 0.437 | 0.547 |  |  |  | 
O=C(O)/C=C/c1ccc(Cn2ccnc2)cc1 [Ozagrel] | 0.131 | 0.535 | −0.149 | 0.271 |  |  |  | 
O=C(NOC[C@H](O)CO)c1ccc(F)c(F)c1Nc1ccc(I)cc1F [PD0325901] | −1.200 | −2.760 | −2.072 | −2.301 |  |  |  | 
CC(C)CC(=O)Nc1[nH]nc2c1CN(C(=O)C1CCN(C)CC1)C2(C)C [PHA-793887] | 0.271 | 0.314 | −0.344 | −2.045 |  |  |  | 
Oc1cc(O)cc(/C=C/c2ccc(O)c(O)c2)c1 [Piceatannol] | 0.554 | −0.216 | 0.177 | −0.170 |  |  |  | 
COc1ccc(-c2nc3ccc(C4=NNC(=O)CC4C)cc3[nH]2)cc1 (centres unmarked) [Pimobendan] | −0.053 | 0.460 | 0.492 | 0.333 |  |  |  | 
Nc1cccc2c1C(=O)N(C1CCC(=O)NC1=O)C2=O (centres unmarked) [Pomalidomide] | 0.150 | 0.536 | −0.517 | −0.729 |  |  |  | 
C#CCC(Cc1cnc2nc(N)nc(N)c2n1)c1ccc(C(=O)N[C@@H](CCC(=O)O)C(=O)O)cc1 (some centres unmarked) [Pralatrexate] |  |  |  |  | −1.551 | −2.036 | −1.626 | −2.201
CCCN[C@H]1CCc2nc(N)sc2C1 [Pramipexole] |  |  |  |  | 0.261 | 0.436 | 0.062 | 0.551
CC(C)NCC(O)COc1cccc2ccccc12 (centres unmarked) [Propranolol HCl] |  |  |  |  | 0.158 | 0.129 | 0.279 | 0.400
CCc1nc(N)nc(N)c1-c1ccc(Cl)cc1 [Pyrimethamine] |  |  |  |  | 0.016 | −0.618 | −0.994 | −1.480

Structure (SMILES) | Z.CTG (Dose 0.08 uM) | Z.CTG (Dose 0.40 uM) | Z.CTG (Dose 2.00 uM) | Z.CTG (Dose 10.00 uM) | Z.CTG (standard z score) (Dose 0.08 uM) | Z.CTG (standard z score) (Dose 0.40 uM) | Z.CTG (standard z score) (Dose 2.00 uM) | Z.CTG (standard z score) (Dose 10.00 uM)
CCC(=O)NCC[C@@H]1CCc2ccc3c(c21)CCO3 [Ramelteon] |  |  |  |  | −0.066 | 0.369 | −0.752 | 0.358
CNC(=C[N+](=O)[O-])NCCSCc1ccc(CN(C)C)o1 [Ranitidine] |  |  |  |  | −0.121 | 0.370 | −0.165 | −0.625
C#CCN[C@@H]1CCc2ccccc21 [Rasagiline Mesylate] |  |  |  |  | 0.367 | 0.246 | 0.099 | 0.249
O=C(NC(Cc1cc(=O)[nH]c2ccccc12)C(=O)O)c1ccc(Cl)cc1 (centres unmarked) [Rebamipide] |  |  |  |  | −0.612 | −1.217 | −0.484 | −0.672
Cc1c(C(=O)NN2CCCCC2)nn(-c2ccc(Cl)cc2Cl)c1-c1ccc(Cl)cc1 [Rimonabant] |  |  |  |  | 0.611 | 0.492 | 0.561 | 0.152
O=C(NC[C@H]1CN(c2ccc(N3CCOCC3=O)cc2)C(=O)O1)c1ccc(Cl)s1 [Rivaroxaban] |  |  |  |  | 0.050 | 0.466 | 0.123 | 0.104
CN(C)CCc1c[nH]c2ccc(Cn3cncn3)cc12 [Rizatriptan Benzoate] |  |  |  |  | 0.512 | 0.260 | 0.302 | −0.129
COc1cc2c(cc1OC)[C@@H]1Cc3ccc(OC)c(OC)c3CN1CC2 [Rotundine] |  |  |  |  | 0.857 | 0.818 | 0.454 | 0.543
CC(=O)OCC(=O)NCCCOc1cccc(CN2CCCCC2)c1 [Roxatidine Acetate HCl] |  |  |  |  | −0.095 | 0.050 | −0.245 | −0.564
CC(C)N(CCCNC(=O)Nc1ccc(C(C)(C)C)cc1)C[C@H]1O[C@@H](n2cc(Br)c3c(N)ncnc32)[C@H](O)[C@@H]1O [SGC0946] |  |  |  |  | 0.124 | −0.290 | −0.197 | −0.340
Oc1c2ccccc2c2c3c(cccc13)N=N2 [SP600125] |  |  |  |  | 0.471 | 0.347 | 0.246 | −0.047
Cc1[nH]c(/C=C2\C(=O)Nc3ccc(S(=O)(=O)N(C)c4cccc(Cl)c4)cc32)c(C)c1C(=O)N1CCN(C)CC1 [SU11274] |  |  |  |  | 0.852 | 0.645 | 0.139 | −1.954
CN[C@H]1CC[C@@H](c2ccc(Cl)c(Cl)c2)c2ccccc21 [Sertraline HCl] |  |  |  |  | −0.189 | 0.208 | 0.157 | 0.104
CC(NC(=O)c1ccccc1/N=C/c1c(O)ccc2ccccc12)c1ccccc1 (centres unmarked) [Sirtinol] |  |  |  |  | −0.520 | 0.022 | −0.287 | −0.186
Cc1cc2c(cc1CC(=O)c1sccc1S(=O)(=O)Nc1onc(C)c1Cl)OCO2 [Sitaxentan sodium] |  |  |  |  | 0.226 | −0.478 | −0.230 | −0.240
CN1CCN(c2nc(C3=C(c4c[nH]c5ccccc45)C(=O)NC3=O)c3ccccc3n2)CC1 [Sotrastaurin] |  |  |  |  | 0.024 | −0.286 | −0.650 | −0.578
O=S(=O)(c1ccccc1)N(CC(F)(F)F)c1ccc(C(O)(C(F)(F)F)C(F)(F)F)cc1 [T0901317] |  |  |  |  | 0.112 | 0.426 | 0.228 | 0.272
